Measured values: US6028197A, “Dibenzo[a,g]quinolizinium derivatives and the salts thereof” (Hanwha Corporation, priority 1998, dated 2000)
Read-outs that look alike come from different tables or passages of the source.

Tests used:
Syrian Golden Hamster = assay: In vivo effect on plasma lipids in Syrian Golden Hamster; details: 6.0 mg/kg/day oral, 14 days
Method: In order to investigate the effect of the compound of formula (I) of the invention, the compound was orally administered into male Syrian Golden Hamsters having weights of 90~110 g for two weeks and blood was then taken from each animal. Plasma lipids, i.e., total cholesterol, LDL-cholesterol,HDL-cholesterol and triglycerides were analyzed using an automatic analyzer (Automatic analyzer model Hitachi 7150).
Male Syrian Golden Hamsters weighing 90~110 g distributed from Samyuk Animal Laboratory, Seoul, Korea were bred under the following conditions: they were maintained under reverse light cycle (light cycle: from 6 P.M to 6 A.M; dark cycle: from 6 A.M. to 6 P.M.). The food and water were supplied at 10 A.M. The commercially available standard rodent chows were used. The hamsters were divided into 6 or 7 animals per group. The animals were fasted for 12 hours before administrating the drug. Then, 5,6-dihydrodibenzo[a,g]quinolizinium salts (compound no. 2) dissolved in a 0.25% methyl cellulose solution was administered orally for 14 days at the indicated time per a day. After fasting animals for 24 hours from the last administration, blood was extracted using a cardiac puncture and plasma was then isolated. Plasma lipids, i.e., total cholesterol, LDL-cholesterol, HDL-cholesterol and triglyceride values were analyzed using Automatic Analyzer (Hitachi 7150).

sterol 14-reductase = target: T1, sterol 14-reductase (Rattus norvegicus, UniProt A0ACM8Q6X4); assay: Inhibition of sterol 14-reductase in rat liver microsomes; type: biochemical; details: read-out: Enzyme Activity (relative in vitro activity for sterol 14-reductase, IC50 class)
T1 construct: microsome which was used as an enzyme source of sterol 14-reductase; from tissue; host or cells: liver microsomes of male Sprague-Dawley rats fed lovastatin and cholestyramine
T1 sequence (A0ACM8Q6X4 1-418): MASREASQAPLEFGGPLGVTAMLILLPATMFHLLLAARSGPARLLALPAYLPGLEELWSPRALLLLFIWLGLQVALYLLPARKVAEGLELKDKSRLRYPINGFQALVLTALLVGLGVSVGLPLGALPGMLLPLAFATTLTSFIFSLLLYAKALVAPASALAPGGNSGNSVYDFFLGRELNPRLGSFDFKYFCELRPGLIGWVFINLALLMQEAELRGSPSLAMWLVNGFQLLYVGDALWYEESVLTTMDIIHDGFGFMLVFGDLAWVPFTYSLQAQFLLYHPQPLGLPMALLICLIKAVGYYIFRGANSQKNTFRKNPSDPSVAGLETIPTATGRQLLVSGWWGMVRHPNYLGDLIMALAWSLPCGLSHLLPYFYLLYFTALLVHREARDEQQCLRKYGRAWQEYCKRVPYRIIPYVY
Method: 20 Male Sprague-Dawley rats weighing from 150 to 250 g have been fed for 7 days with a diet containing 0.1% (w/w) Lovastatin and 5% (w/w) Cholestyramine. The animals were fasted for 12 hours before excising liver tissues and then sacrificed by decapitation at midnight. An aqueous solution containing 0.25M of sucrose was injected into the hepatic portal vein to remove all the blood within the liver, and then, the liver was excised. The liver was homogenated with two volumes of buffer solution A (0.1M potassium phosphate, 1 mM reduced glutathione, 0.5 mM EDTA, 20% (v/v) glycerol, pH 7.4) by repeating pestles over 10 times and then, centrifuged with 900×g for 5 minutes to give a supernatant. The supernatant was centrifuged with 12,000×g for 20 minutes. The supernatant obtained was ultracentrifuged with 105,000×g for 90 minutes to give a microsome which was used as an enzyme source of sterol 14-reductase. Assay for sterol 14-reductase was carried out as follows:
60 mmol of 4,4-dimethyl-5α-cholesta-7,14-dien-3β-ol and 5,6-dihydrodibenzo-[a,g]quinolizinium salts (compound no. 2) dissolved in DMSO were added to an assay mixture (total volume 1.0 ml) containing 2 mg of the microsomal protein, 2 mM of NADPH and 25 mg of glucose plus 20 units of glucose oxidase with preincubations under nitrogen at 37° C. for 4 min. unless otherwise specified to establish anaerobic condition. Buffer A (0.1M potassium phosphate buffer, pH 7.4, including 1 mM reduced glutathione, 0.5 mM EDTA, and 20% (v/v) glycerol) used for incubation had been equilibrated with nitrogen, and nitrogen was exchanged for air in all sealed reaction flasks prior to the start of incubations. Incubation of the complete mixture was carried out anaerobically in sealed flasks for 10 min at 37° C. unless otherwise indicated. Incubations were terminated by the addition of 1 ml of ethanolic KOH followed by heating under reflux for 10 min. Sterols were extracted four times with 4 ml of petroleum ether, and the solvent was evaporated to dryness under a nitrogen stream. The resulting residue was dissolved in 200-500 μl of n-hexane for quantification by GLC at high sensitive attenuation. The activity of sterol 14-reductase was determined with the amount of the substrate wherein the double bonds of 14-carbon were reduced (for the amount reduced by 1 mg of the microsome protein for 1 minute).

IC50 (sterol 14-reductase) [µM] | Structure (SMILES) | further results
– | CC[C@H](C)C(=O)O[C@H]1C[C@@H](C)C=C2C=C[C@H](C)[C@H](CC[C@@H]3C[C@@H](O)CC(=O)O3)[C@H]21 [lovastatin, reference compound] | HDL cholesterol, change versus normal diet control (Syrian Golden Hamster): +11.2%; LDL cholesterol, change versus normal diet control (Syrian Golden Hamster): -21.4%; Total cholesterol, change versus normal diet control (Syrian Golden Hamster): -17.6%; Triglyceride, change versus normal diet control (Syrian Golden Hamster): -30.1%; HDL cholesterol (Syrian Golden Hamster; normal diet, plasma): 67.0 ± 3 mg/dL; LDL cholesterol (Syrian Golden Hamster; normal diet, plasma): 29.1 ± 2 mg/dL; Total cholesterol (Syrian Golden Hamster; normal diet, plasma): 107.8 ± 9 mg/dL; Triglyceride (Syrian Golden Hamster; normal diet, plasma): 55.5 ± 7 mg/dL
10 to 100 | CCc1c2[n+](cc3c(OCc4ccccc4I)c(OC)ccc13)CCc1cc(OC)c(OC)cc1-2 [Compound No. 43, 5,6-dihydro-2,3-dimethoxybenzo[a]-13-ethyl-9-(2-iodo)benzyloxy-10-methoxybenzo[g]quinolizinium chloride] | –
10 to 100 | CCc1c2[n+](cc3c(OCc4ccc(C(F)(F)F)cc4)c(OC)ccc13)CCc1cc3c(cc1-2)OCO3 [Compound No. 50, 5,6-dihydro-2,3-methylenedioxybenzo[a]-13-ethyl-10-methoxy-9-(4-trifluoromethyl)benzyloxybenzo[g]quinolizinium iodide] | –
< 1 | CCCCCCCCCCCCOc1c(OCC)ccc2c(CC)c3[n+](cc12)CCc1cc(OCC)c(OCC)cc1-3 [Compound No. 61, 5,6-dihydro-2,3-diethoxybenzo[a]-9-dodecoxy-10-ethoxy-13-ethylbenzo[g]quinolizinium chloride] | –
10 to 100 | CCOc1cc2c(cc1OCC)-c1c(CC)c3ccc(OCC)c(OCc4ccc(C(F)(F)F)cc4)c3c[n+]1CC2 [Compound No. 62, 5,6-dihydro-2,3-diethoxybenzo[a]-10-ethoxy-13-ethyl-9-(4-trifluoromethyl)benzyloxybenzo[g]quinolizinium chloride] | –
< 1 | CCOc1cc2c(cc1OCC)-c1c(CC)c3ccc(OC)c(OCc4ccc(C(C)(C)C)cc4)c3c[n+]1CC2 [Compound No. 55, 5,6-dihydro-2,3-diethoxybenzo[a]-9-[4-(tert-butyl)benzyloxy]-13-ethyl-10-methoxybenzo[g]quinolizinium chloride] | –
> 100 | CCc1c2[n+](cc3c(OCc4cccc(C)c4)c(OC)ccc13)CCc1cc(OC)c(OC)cc1-2 [Compound No. 32, 5,6-dihydro-2,3-dimethoxybenzo[a]-13-ethyl-10-methoxy-9-(3-methyl)benzyloxybenzo[g]quinolizinium chloride] | –
> 100 | CCc1c2[n+](cc3c(OCc4cccc(Oc5ccccc5)c4)c(OC)ccc13)CCc1cc(OC)c(OC)cc1-2 [Compound No. 21, 5,6-dihydro-2,3-dimethoxybenzo[a]-13-ethyl-10-methoxy-9-(3-phenoxy)benzyloxybenzo[g]quinolizinium chloride] | –
> 100 | C=Cc1ccc(COc2c(OC)ccc3c(CC)c4[n+](cc23)CCc2cc(OC)c(OC)cc2-4)cc1 [Compound No. 8, 5,6-dihydro-2,3-dimethoxybenzo[a]-13-ethyl-10-methoxy-9-(4-vinyl)benzyloxybenzo[g]quinolizinium chloride] | –
10 to 100 | CCc1c2[n+](cc3c(OCc4ccc([N+](=O)[O-])o4)c(OC)ccc13)CCc1cc(OC)c(OC)cc1-2 [Compound No. 39, 5,6-dihydro-2,3-dimethoxybenzo[a]-13-ethyl-10-methoxy-9-(5-nitrofuran-2-yl)methoxybenzo[g]quinolizinium chloride] | –
> 100 | C=C(C)COc1c(OC)ccc2c(CC)c3[n+](cc12)CCc1cc(OC)c(OC)cc1-3 [Compound No. 41, 5,6-dihydro-2,3-dimethoxybenzo[a]-13-ethyl-10-methoxy-9-(2-methyl)propenoxybenzo[g]quinolizinium chloride] | –
> 100 | CCc1c2[n+](cc3c(OCc4ccc(C)cc4)c(OC)ccc13)CCc1cc(OC)c(OC)cc1-2 [Compound No. 31, 5,6-dihydro-2,3-dimethoxybenzo[a]-13-ethyl-10-methoxy-9-(4-methyl)benzyloxybenzo[g]quinolizinium chloride] | –
> 100 | CCc1c2[n+](cc3c(OCc4cc(OC)c(OC)c(OC)c4)c(OC)ccc13)CCc1cc(OC)c(OC)cc1-2 [Compound No. 37, 5,6-dihydro-2,3-dimethoxybenzo[a]-13-ethyl-10-methoxy-9-(3,4,5-trimethoxy)benzyloxybenzo[g]quinolizinium chloride] | –
– | CCc1c2[n+](cc3c(OCc4ccc(C)c([N+](=O)[O-])c4)c(OC)ccc13)CCc1cc(OC)c(OC)cc1-2 [Compound No. 6, 5,6-dihydro-2,3-dimethoxybenzo[a]-13-ethyl-10-methoxy-9-(4-methyl-3-nitro)benzyloxybenzo[g]quinolizinium chloride] | IC50 (sterol 14-reductase; microsomes): < 1 µM
10 to 100 | CCOc1cc2c(cc1OCC)-c1c(CC)c3ccc(OC)c(OCc4ccc(Cl)nc4)c3c[n+]1CC2 [Compound No. 58, 5,6-dihydro-2,3-diethoxybenzo[a]-9-(6-chloropyridinyl-3-yl)methoxy-13-ethyl-10-methoxybenzo [g]-quinolizinium chloride] | –
> 100 | CCc1c2[n+](cc3c(OCc4cc(OC)cc(OC)c4)c(OC)ccc13)CCc1cc(OC)c(OC)cc1-2 [Compound No. 35, 5,6-dihydro-2,3-dimethoxybenzo[a]-9-(3,5-dimethoxy)benzyloxy-13-ethyl-10-methoxybenzo[g]quinolizinium chloride] | –
10 to 100 | CCc1c2[n+](cc3c(OCc4ccc(Br)cc4)c(OC)ccc13)CCc1cc(OC)c(OC)cc1-2 [Compound No. 19, 5,6-dihydro-2,3-dimethoxybenzo[a]-9-(4-bromo)benzyloxy-13-ethyl-10-methoxybenzo[g]quinolizinium chloride] | –
10 to 100 | CCOc1cc2c(cc1OCC)-c1c(CC)c3ccc(OCC)c(OCc4c(F)c(F)c(C(F)(F)F)c(F)c4F)c3c[n+]1CC2 [Compound No. 64, 5,6-dihydro-2,3-diethoxybenzo[a]-10-ethoxy-13-ethyl-9-(2,3,5,6-tetrafluoro-4-trifluoromethyl)-benzyloxy benzo[g]quinolizinium chloride] | –
